Assay [1] concerns the target T1, purified LasB protein from P. aeruginosa (Pseudomonas aeruginosa, UniProt P14756).
T1 construct: purchased Merck or Charles River Laboratories
In words: Fluorometric assay to determine Ki (purified LasB, Abz-Ala-Gly-Leu-Ala-p-Nitro-Benzyl-Amide substrate). The assay is classed as biochemical. As to the method: (§1) Experiments were therefore conducted (1) to measure the potency of inhibition of compounds of the invention against purified Pseudomonas aeruginosa LasB enzyme and also experiments were conducted (2) to measure the ability of compounds of the invention to inhibit LasB-catalysed elastin degradation. The first assay uses a commercial fluorescent synthetic peptide and purified LasB enzyme. The LasB hydrolysis kinetics are measured allowing the determination of the IC50 and Ki of the inhibitors; the second is a more physiological assay using dialysed Pseudomonas aeruginosa supernatant as source of enzyme, plus its natural substrate Elastin. It is an “end point assay” that determines the percentage of LasB inhibition by each compound for one particular time point and inhibitor concentration. Technical details are described below:
This assay uses commercially available substrate (Abz-Ala-Gly-Leu-Ala-p-Nitro-Benzyl-Amide (Ex: 340 nm, Em: 415 nm) from Peptide International) and purified LasB protein from P. aeruginosa (provided by Merck or Charles River Laboratories). It is performed to determine LasB elastase activity and assess compound inhibition in 96-well plate format. All compounds of Formula (I) were assessed using the method described below.
Method: 10 to 140 ng/ml purified LasB is incubated with 250 μM Abz-Ala-Gly-Leu-Ala-p-Nitro-Benzyl-Amide in 50 mM Tris-HCl pH 7.4, 2.5 mM CaCl2), 0.01% of Triton X100 at 37° C. LasB activity (corresponding to fluorescence emission induced by substrate hydrolysis) is measured over 30 min at 37° C. with a fluorescence plate reader such as the Perkin Elmer Envision or similar. Different range of inhibitor concentrations are routinely assessed depending of inhibitor potency from 0.0016 to 200 μM (2-fold dilutions series) in order to determine IC50.
The equation used to calculate the Ki from IC50 is: Ki=IC50/(1+([S]/Km)) where [S]=250 μM and Km=214 μM.

The target of assay [2] is T2, LasB elastase activity of dialysed supernatant from P. aeruginosa PAO1 (Pseudomonas aeruginosa, UniProt P14756).
T2 construct: Culture supernatants are recovered by centrifugation and filtrated through a 0.22 μM filter; endogenous in cells; host or cells: P. aeruginosa strain PAO1, culture supernatant, filtered and dialysed
T2 sequence (P14756 198-498): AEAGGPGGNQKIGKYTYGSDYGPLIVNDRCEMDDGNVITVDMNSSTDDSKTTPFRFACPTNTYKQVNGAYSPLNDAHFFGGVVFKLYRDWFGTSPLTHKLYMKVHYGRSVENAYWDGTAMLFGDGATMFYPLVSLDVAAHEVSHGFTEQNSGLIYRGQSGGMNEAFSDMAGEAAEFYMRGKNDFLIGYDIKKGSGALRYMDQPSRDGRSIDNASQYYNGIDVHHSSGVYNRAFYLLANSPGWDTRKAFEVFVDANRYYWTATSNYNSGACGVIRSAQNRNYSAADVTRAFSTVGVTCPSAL
In words: Elastin Congo-Red assay to determine % inhibition (dialysed PAO1 supernatant). The format is biochemical. The settings on record: read-out: Elastin hydrolysis % inhibition @ 25 μM inhibitor concentration. As to the method: as §1
The Elastin assay uses as source of enzyme dialysed supernatant from P. aeruginosa PAO1 and the Elastin Congo-Red as substrate. The natural LasB substrate, elastin, is complexed with the congo-red dye (Elastin Congo-Red, ECR). The elastolysis activity from the culture supernatant will degrade elastin and release the congo-red dye into the supernatant. This red dye release can be measured with a spectrophotometer.
Method: To determine LasB elastase activity and assess compound inhibition, an overnight culture of P. aeruginosa strain PAO1 is diluted in LB medium. After reaching an OD600nm of 0.6, this culture is diluted and incubated for additional 18-24 hours in a shaking incubator. Culture supernatants are recovered by centrifugation and filtrated through a […] filter. These supernatants are dialysed (filtration molecules <20 kDa) into a 50 mM Tris-HCl pH 7.4, 2.5 mM CaCl2 solution at 4° C. under agitation for 24 hours. Supernatant dialysed is then mixed volume/volume with the ECR suspension (20 mg/mL of ECR in 100 mM Tris-HCl pH 7.4 buffer supplemented with 1 mM CaCl2)) supplemented with Triton X100 (final concentration of 0.01%) in presence of DMSO (positive control) and/or different concentrations of compound (routinely 50 to 1.56 μM). As a negative control, the dialysed supernatant is replaced by Tris-HCl solution (50 mM Tris-HCl pH 7.4, 2.5 mM CaCl2). The mixed reaction is then incubated overnight in a 37° C. shaking incubator. The reaction supernatant is recovered by centrifugation and the release of congo-red is measured by its absorbance at 495 nm (OD495nm).
Percentage inhibition is determined using the following equation:
((OD495 nm value of positive control−OD495nm value of negative control)−(OD495nm value of treated supernatant−OD495nm value of negative control))/(OD495nm value of positive control−OD495nm value of negative control)×100.

pKi: −log10 of the molar value. A value given as a limit tells only on which side of the number the result lay.

T1 sequence (P14756 198-498): as above

Regarding `COc1cc2sc(CNC(=O)C3(CC(=O)[O-])Cc4cc(F)c(F)cc4C3)nc2cc1OCC(=O)N1CC[N+](C)(C)CC1` [Example 14, 2-[2-[[5-[2-(4,4-dimethylpiperazin-4-ium-1-yl)-2-oxo-ethoxy]-6-methoxy-1,3-benzothiazol-2-yl]methylcarbamoyl]-5,6-difluoro-indan-2-yl]acetate], the pKi (as a rule, the Ki on a negative log10 scale, so that one unit is a factor of ten) in assay [1] is 6.70 to 7.30. For the same molecule, the inhibition at 25 µM in assay [2] was in the range of 60 to 80%.

In assay [1], `COc1cc2sc(CNC(=O)C3(CC(=O)[O-])Cc4cc(F)c(F)cc4C3)nc2cc1OCCC[N+]1(C)CCOCC1` [Example 15, 2-[5,6-difluoro-2-[[6-methoxy-5-[3-(4-methylmorpholin-4-ium-4-yl)propoxy]-1,3-benzothiazol-2-yl]methylcarbamoyl]indan-2-yl]acetate] gave a pKi of 6.70 to 7.30. Further, the inhibition at 25 µM in assay [2] fell in the range of 60 to 80%.

In assay [1], `COc1cc2sc(CNC(=O)C3(CC(=O)[O-])Cc4ccccc4C3)nc2cc1OCCC[N+]1(C)CCOCC1` [Example 16, 2-[2-[[6-methoxy-5-[3-(4-methylmorpholin-4-ium-4-yl)propoxy]-1,3-benzothiazol-2-yl]methylcarbamoyl]indan-2-yl]acetate] had a pKi greater than 7.30. Also, in assay [2], the inhibition at 25 µM was in the range of 60 to 80%.

On to `COc1cc2sc(CNC(=O)C3(CC(=O)[O-])Cc4ccccc4C3)nc2cc1OCC1CC[N+](C)(C)CC1` [Example 17, 2-[2-[[5-[(1,1-dimethylpiperidin-1-ium-4-yl)methoxy]-6-methoxy-1,3-benzothiazol-2-yl]methylcarbamoyl]indan-2-yl]acetate], for which, in assay [1], the pKi is 6.70 to 7.30. Further, the inhibition at 25 µM in assay [2] lay in the range of 60 to 80%.

In assay [1], `CC[N+](C)(CC)CCCOc1cc2nc(CNC(=O)C3(CC(=O)[O-])Cc4ccccc4C3)sc2cc1OC` [Example 18, 2-[2-[[5-[3-[diethyl(methyl)ammonio]propoxy]-6-methoxy-1,3-benzothiazol-2-yl]methylcarbamoyl]indan-2-yl]acetate] gave a pKi greater than 7.30. Further, in assay [2], the inhibition at 25 µM lay within 60 to 80%.

Take `COc1cc2sc(CNC(=O)C3(CC(=O)[O-])Cc4cc(F)c(F)cc4C3)nc2cc1OCCC[N+](C)(C)CCO` [Example 21, 2-[5,6-difluoro-2-[[5-[3-[2-hydroxyethyl(dimethyl)ammonio]propoxy]-6-methoxy-1,3-benzothiazol-2-yl]methylcarbamoyl]indan-2-yl]acetate]: the pKi in assay [1] was greater than 7.30. Further, the inhibition at 25 µM in assay [2] was greater than 80%.

The molecule `CN1CCN(C(=O)COc2ccc3sc(CNC(=O)C4(CC(=O)O)Cc5ccccc5C4)nc3c2)CC1` [Example 24, 2-[2-[[5-[2-(4-methylpiperazin-1-yl)-2-oxo-ethoxy]-1,3-benzothiazol-2-yl]methylcarbamoyl]indan-2-yl]acetic acid] had a pKi in assay [1] of 5.00 to 6.70. Further, the inhibition at 25 µM in assay [2] lay within 60 to 80%.

As to `CN1CCN(CCOc2ccc3sc(CNC(=O)C4(CC(=O)O)Cc5ccccc5C4)nc3c2)CC1` [Example 25, 2-[2-[[5-[2-(4-methylpiperazin-1-yl)ethoxy]-1,3-benzothiazol-2-yl]methylcarbamoyl]indan-2-yl]acetic acid], the pKi in assay [1] is 5.00 to 6.70. Also, the inhibition at 25 µM in assay [2] is 60 to 80%.

As to `CN1CCN(C(=O)c2ccc3sc(CNC(=O)C4(CC(=O)O)Cc5ccccc5C4)nc3c2)CC1` [Example 27, 2-[2-[[5-(4-methylpiperazine-1-carbonyl)-1,3-benzothiazol-2-yl]methylcarbamoyl]indan-2-yl]acetic acid], the pKi in assay [1] was 6.70 to 7.30. For the same molecule, in assay [2], the inhibition at 25 µM fell in the range of 60 to 80%.

As for `CN(C)C1CN(C(=O)c2ccc3sc(CNC(=O)C4(CC(=O)O)Cc5ccccc5C4)nc3c2)C1` [Example 32, 2-[2-[[5-[3-(dimethylamino)azetidine-1-carbonyl]-1,3-benzothiazol-2-yl]methylcarbamoyl]indan-2-yl]acetic acid], the pKi in assay [1] was 6.70 to 7.30. Besides, in assay [2], the inhibition at 25 µM was 60 to 80%.

Consider `COc1cc2sc(CNC(=O)C3(CC(=O)O)Cc4ccccc4C3)nc2cc1C(=O)N1CCN(C)CC1` [Example 33, 2-[2-[[6-methoxy-5-(4-methylpiperazine-1-carbonyl)-1,3-benzothiazol-2-yl]methylcarbamoyl]indan-2-yl]acetic acid], for which, in assay [1], the pKi is greater than 7.30. In addition, the inhibition at 25 µM in assay [2] lay in the range of 60 to 80%.

On to `COc1cc2sc(CNC(=O)C3(CC(=O)O)Cc4cc(F)c(F)cc4C3)nc2cc1C(=O)N1CCN(C)CC1` [Example 34, 2-[5,6-difluoro-2-[[6-methoxy-5-(4-methylpiperazine-1-carbonyl)-1,3-benzothiazol-2-yl]methylcarbamoyl]indan-2-yl]acetic acid], for which the pKi in assay [1] is greater than 7.30. Further, the inhibition at 25 µM in assay [2] is greater than 80%.

`COc1cc2sc(CNC(=O)C3(CC(=O)[O-])Cc4cc(F)c(F)cc4C3)nc2cc1C(=O)N1CC[N+](C)(C)CC1` [Example 35, 2-[2-[[5-(4,4-dimethylpiperazin-4-ium-1-carbonyl)-6-methoxy-1,3-benzothiazol-2-yl]methylcarbamoyl]-5,6-difluoro-indan-2-yl]acetate] gave a pKi in assay [1] of 6.70 to 7.30. The inhibition at 25 µM in assay [2] lay in the range of 60 to 80%.

Regarding `COc1cc2sc(CNC(=O)C3(CC(=O)O)Cc4ccccc4C3)nc2cc1C(=O)N1CC(N(C)C)C1` [Example 36, 2-[2-[[5-[3-(dimethylamino)azetidine-1-carbonyl]-6-methoxy-1,3-benzothiazol-2-yl]methylcarbamoyl]indan-2-yl]acetic acid], in assay [1], the pKi was greater than 7.30. In assay [2], the inhibition at 25 µM was greater than 80%.

Turning to `COc1cc2sc(CNC(=O)C3(CC(=O)O)Cc4cc(F)c(F)cc4C3)nc2cc1C(=O)N1CC(N(C)C)C1` [Example 37, 2-[2-[[5-[3-(dimethylamino)azetidine-1-carbonyl]-6-methoxy-1,3-benzothiazol-2-yl]methylcarbamoyl]-5,6-difluoro-indan-2-yl]acetic acid], the pKi in assay [1] is greater than 7.30. In addition, in assay [2], the inhibition at 25 µM was greater than 80%.

In assay [1], `COc1cc2sc(CNC(=O)C3(CC(=O)O)Cc4ccccc4C3)nc2cc1C(=O)N1CCC(N(C)C)CC1` [Example 38, 2-[2-[[5-[4-(dimethylamino)piperidine-1-carbonyl]-6-methoxy-1,3-benzothiazol-2-yl]methylcarbamoyl]indan-2-yl]acetic acid] had a pKi of 6.70 to 7.30. The inhibition at 25 µM in assay [2] lay in the range of 60 to 80%.

As for `COc1cc2sc(CNC(=O)C3(CC(=O)O)Cc4ccccc4C3)nc2cc1C(=O)N1CCOC(CN(C)C)C1` (centres unmarked) [Example 40, 2-[2-[[5-[2-[(dimethylamino)methyl]morpholine-4-carbonyl]-6-methoxy-1,3-benzothiazol-2-yl]methylcarbamoyl]indan-2-yl]acetic acid], the negative-log Ki (pKi) in assay [1] was 6.70 to 7.30. In assay [2], the inhibition at 25 µM is 60 to 80%.

In assay [1], `COc1cc2sc(CNC(=O)C3(CC(=O)[O-])Cc4ccccc4C3)nc2cc1C(=O)N1CCOC(C[N+](C)(C)C)C1` (centres unmarked) [Example 41, 2-[2-[[6-methoxy-5-[2-[(trimethylammonio)methyl]morpholine-4-carbonyl]-1,3-benzothiazol-2-yl]methylcarbamoyl]indan-2-yl]acetate] had a pKi of 6.70 to 7.30. Besides, the inhibition at 25 µM in assay [2] lay within 60 to 80%.

Turning to `COc1cc2sc(CNC(=O)C3(CC(=O)[O-])Cc4ccccc4C3)nc2cc1C(=O)N1CC([N+](C)(C)C)C1` [Example 42, 2-[2-[[6-methoxy-5-[3-(trimethylammonio)azetidine-1-carbonyl]-1,3-benzothiazol-2-yl]methylcarbamoyl]indan-2-yl]acetate], the pKi in assay [1] was 5.00 to 6.70. Further, the inhibition at 25 µM in assay [2] lay within 60 to 80%.

The values are drawn from patent publication US20240016941A1, “COMBINATION THERAPY” (priority 2020, published 2024).
